This passage reports EC50 results from US12486269B2 (Aconcagua Bio, Inc., priority 2024, dated 2025).

Experiment [1] addresses T1, human calcitonin receptor (CTR) (Homo sapiens, UniProt P30988).
T1 construct: expressed in transfected cells; host or cells: COS-7 (COS7-human CTR Clone #2)
T1 sequence (P30988 25-474): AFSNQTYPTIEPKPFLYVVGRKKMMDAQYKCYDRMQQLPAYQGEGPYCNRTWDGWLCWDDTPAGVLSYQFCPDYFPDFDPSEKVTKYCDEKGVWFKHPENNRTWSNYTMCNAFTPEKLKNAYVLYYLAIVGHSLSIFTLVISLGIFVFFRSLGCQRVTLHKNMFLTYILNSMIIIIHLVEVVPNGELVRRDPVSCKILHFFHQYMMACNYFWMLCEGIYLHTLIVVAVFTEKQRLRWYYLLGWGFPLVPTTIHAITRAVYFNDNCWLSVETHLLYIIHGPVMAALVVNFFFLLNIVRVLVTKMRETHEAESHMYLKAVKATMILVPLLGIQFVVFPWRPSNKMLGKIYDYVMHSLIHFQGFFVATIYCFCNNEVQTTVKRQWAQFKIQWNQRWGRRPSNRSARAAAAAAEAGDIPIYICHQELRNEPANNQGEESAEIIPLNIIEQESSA
Nature of the experiment: Calcitonin Receptor (CTR) cAMP Assay. The experiment is classed as cell-based. The note with it: COS7-human CTR Clone #2 stable cell line, cAMP dynamic 2 kit, 30 min; read-out: Calcitonin Receptor cAMP Stimulation Activity: EC50. The gist of the method: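 COS-7 cells stably expressing human CTR (2000 cells/well) were incubated 30 min at 37 °C with 4-fold serially diluted compound in HBSS/20 mM HEPES/0.5 mM IBMX/0.1% casein. cAMP was detected by HTRF (665/615 nm) after 1 h at RT. % activity was normalised to vehicle and positive controls.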

Experiment [2] concerns the target T2, COS-7/AMY3 (human calcitonin receptor (CTR) and RAMP3) (Homo sapiens, UniProt O60896+P30988).
T2 construct: expressed in transfected cells; host or cells: COS-7
The experiment in a line: Amylin Receptor cAMP Assay II. The experiment is classed as cell-based. The note with it: values marked **: Amylin Receptor cAMP Assay II; COS-7/AMY3 cells, cAMP dynamic 2 kit, 30 min; read-out: Amylin Receptor cAMP Stimulation Activity: EC50. The method in brief: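 COS-7 cells stably co-expressing human CTR and RAMP3 (AMY3), 2000 cells/well in HBSS with 20 mM HEPES, 0.5 mM IBMX, 0.1% casein, stimulated with compound for 30 min at 37 °C. cAMP measured by HTRF (665/615 nm), activity normalized between vehicle and maximal control.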

T2 sequence (O60896 24-148, one chain of several): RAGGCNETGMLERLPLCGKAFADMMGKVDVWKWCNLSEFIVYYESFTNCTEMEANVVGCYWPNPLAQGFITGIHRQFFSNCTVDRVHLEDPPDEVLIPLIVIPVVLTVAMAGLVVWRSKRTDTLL

In the case of `COc1c(F)ccc2c1CC[C@H]2Nc1ccnc2cc(-c3c4c(nc(CCc5ccc(F)cc5)c3-c3n[nH]c(=O)o3)C35CC(CN3C4=O)C5)sc12` [Compound 271, (R)-5-(4-(7-((5-fluoro-4-methoxy-2,3-dihydro-1H-inden-1-yl)amino)thieno[3,2-b]pyridin-2-yl)-2-(4-fluorophenethyl)-5-oxo-8,9-dihydro-5H,7H-8,9a-methanopyrido[2,3-a]pyrrolizin-3-yl)-1,3,4-oxadiazol-2(3H)-one], the EC50 in experiment [1] is 0.178 nM; in experiment [2] it was 3.13 nM.
The matching figures for `COc1cccc2c1CC[C@H]2Nc1nccc2cc(-c3c4c(nc(CCc5ccc(C(F)(F)F)cc5)c3-c3noc(=O)[nH]3)[C@@H]3CCCN3C4=O)sc12` [Compound 123]: 1.19 nM and 42.9 nM.
The matching figures for `COc1cccc2c1CC[C@H]2Nc1nccc2cc(-c3c4c(nc(C[C@H]5CCc6cc(F)ccc65)c3-c3n[nH]c(=O)o3)[C@@H]3CCCN3C4=O)sc12` [Compound 224, 5-((S)-2-(((R)-5-fluoro-2,3-dihydro-1H-inden-1-yl)methyl)-4-(7-(((R)-4-methoxy-2,3-dihydro-1H-inden-1-yl)amino)thieno[2,3-c]pyridin-2-yl)-5-oxo-7,8,9,9a-tetrahydro-5H-pyrido[2,3-a]pyrrolizin-3-yl)-1,3,4-oxadiazol-2(3H)-one]: 0.702 nM and 50.7 nM.
The matching figures for `COc1cccc2c1CC[C@H]2Nc1nccc2cc(-c3c4c(nc(CCc5ccc(F)cc5)c3-c3n[nH]c(=O)o3)[C@@H]3CCCN3C4=O)sc12` [Compound 230, 5-((S)-2-(4-fluorophenethyl)-4-(7-(((R)-4-methoxy-2,3-dihydro-1H-inden-1-yl)amino)thieno[2,3-c]pyridin-2-yl)-5-oxo-7,8,9,9a-tetrahydro-5H-pyrido[2,3-a]pyrrolizin-3-yl)-1,3,4-oxadiazol-2(3H)-one]: 0.51 nM and 17.4 nM.
On to `O=C1c2c(nc(CCc3ccc(F)cc3)c(-c3n[nH]c(=O)o3)c2-c2cc3ccnc(N[C@@H]4CCc5c(F)cccc54)c3s2)C23CC(CN12)C3` [Compound 272, (R)-5-(4-(7-((4-fluoro-2,3-dihydro-1H-inden-1-yl)amino)thieno[2,3-c]pyridin-2-yl)-2-(4-fluorophenethyl)-5-oxo-8,9-dihydro-5H,7H-8,9a-methanopyrido[2,3-a]pyrrolizin-3-yl)-1,3,4-oxadiazol-2(3H)-one], for which the half-maximal effective concentration (EC50) in experiment [1] was determined as 0.0666 nM; in experiment [2], 1.45 nM.
On the same counts, the results for `COc1cccc2c1CC[C@H]2Nc1nc(C)cc2cc(-c3c4c(nc(CCc5ccc(F)cc5)c3-c3n[nH]c(=O)o3)[C@@H]3CCCN3C4=O)sc12` [Compound 207, 5-((S)-2-(4-fluorophenethyl)-4-(7-(((R)-4-methoxy-2,3-dihydro-1H-inden-1-yl)amino)-5-methylthieno[2,3-c]pyridin-2-yl)-5-oxo-7,8,9,9a-tetrahydro-5H-pyrido[2,3-a]pyrrolizin-3-yl)-1,3,4-oxadiazol-2(3H)-one] are 0.309 nM and 11.3 nM.
On the same counts, the results for `O=C1c2c(nc(CCc3ccc(F)cc3)c(-c3n[nH]c(=O)o3)c2-c2cc3ccnc(N[C@@H]4COc5ccccc54)c3s2)[C@@H]2CCCN12` [Compound 169, 5-((S)-4-(7-(((S)-2,3-dihydrobenzofuran-3-yl)amino)thieno[2,3-c]pyridin-2-yl)-2-(4-fluorophenethyl)-5-oxo-7,8,9,9a-tetrahydro-5H-pyrido[2,3-a]pyrrolizin-3-yl)-1,3,4-oxadiazol-2(3H)-one] are 10.2 nM and 254 nM.
Regarding `COc1cccc2c1CC[C@H]2Nc1nccc2cc(-c3c4c(nc(CCc5ccc(F)cc5)c3-c3n[nH]c(=O)o3)C35CC3CCN5C4=O)sc12` (stereo partly drawn) [Compound 180, 5-(8-(4-fluorophenethyl)-6-(7-(((R)-4-methoxy-2,3-dihydro-1H-inden-1-yl)amino)thieno[2,3-c]pyridin-2-yl)-5-oxo-1,1a,2,3-tetrahydro-5H-cyclopropa[g]pyrido[2,3-a]pyrrolizin-7-yl)-1,3,4-oxadiazol-2(3H)-one], the 50% effective concentration (EC50) was 0.559 nM in experiment [1] and 12.7 nM in experiment [2].
The matching figures for `COc1c(F)ccc2c1CC[C@H]2Nc1ncnc2cc(-c3c4c(nc(CCc5ccc(F)cc5)c3-c3n[nH]c(=O)o3)C35CC(CN3C4=O)C5)sc12` [Compound 268, (R)-5-(4-(4-((5-fluoro-4-methoxy-2,3-dihydro-1H-inden-1-yl)amino)thieno[3,2-d]pyrimidin-6-yl)-2-(4-fluorophenethyl)-5-oxo-8,9-dihydro-5H,7H-8,9a-methanopyrido[2,3-a]pyrrolizin-3-yl)-1,3,4-oxadiazol-2(3H)-one]: 0.077 nM and 1.07 nM.
On the same counts, the results for `COc1cccc2c1CC(F)(F)[C@H]2Nc1nccc2cc(-c3c4c(nc(CCc5ccc(F)cc5)c3-c3n[nH]c(=O)o3)[C@@H]3COCCN3C4=O)sc12` [Compound 284, (R)-4-(7-(((S)-2,2-difluoro-4-methoxy-2,3-dihydro-1H-inden-1-yl)amino)thieno[2,3-c]pyridin-2-yl)-2-(4-fluorophenethyl)-3-(5-oxo-4,5-dihydro-1,3,4-oxadiazol-2-yl)-7,8,10,10a-tetrahydro-5H-pyrido[2′,3′:3,4]pyrrolo[2,1-c][1,4]oxazin-5-one] are 4.23 nM and 81.6 nM.
The matching figures for `COc1cccc2c1CC[C@H]2Nc1nccc2cc(-c3c4c(nc(CC5CCc6cc(F)ccc65)c3-c3noc(=O)[nH]3)[C@@H]3CCCN3C4=O)sc12` (some centres unmarked) [Compound 128]: 1.13 nM and 21.9 nM.
`COc1cc2c(cc1F)[C@H](Nc1nccc3cc(-c4c5c(nc(CCc6ccc(F)cc6)c4-c4n[nH]c(=O)o4)[C@@H]4CCCN4C5=O)sc13)CC2` [Compound 257, 5-((S)-4-(7-(((R)-6-fluoro-5-methoxy-2,3-dihydro-1H-inden-1-yl)amino)thieno[2,3-c]pyridin-2-yl)-2-(4-fluorophenethyl)-5-oxo-7,8,9,9a-tetrahydro-5H-pyrido[2,3-a]pyrrolizin-3-yl)-1,3,4-oxadiazol-2(3H)-one]: the half-maximal effective concentration (EC50) turned out to be 0.696 nM in experiment [1] and 10.2 nM in experiment [2].
The matching figures for `COc1c(F)ccc2c1CC(F)(F)[C@H]2Nc1nc(C)cc2cc(-c3c4c(nc(CCc5ccc(F)cc5)c3-c3n[nH]c(=O)o3)C35CC(CN3C4=O)C5)sc12` [Compound 296, (S)-5-(2-(4-fluorophenethyl)-4-(5-methyl-7-((2,2,5-trifluoro-4-methoxy-2,3-dihydro-1H-inden-1-yl)amino)thieno[2,3-c]pyridin-2-yl)-5-oxo-8,9-dihydro-5H,7H-8,9a-methanopyrido[2,3-a]pyrrolizin-3-yl)-1,3,4-oxadiazol-2(3H)-one]: 0.0164 nM and 0.272 nM.
On the same counts, the results for `COc1cccc2c1CC[C@H]2Nc1nccc2cc(-c3c4c(nc(CCc5ccc(F)cc5)c3-c3n[nH]c(=O)s3)[C@@H]3CCCN3C4=O)sc12` [Compound 225, 5-((S)-2-(4-fluorophenethyl)-4-(7-(((R)-4-methoxy-2,3-dihydro-1H-inden-1-yl)amino)thieno[2,3-c]pyridin-2-yl)-5-oxo-7,8,9,9a-tetrahydro-5H-pyrido[2,3-a]pyrrolizin-3-yl)-1,3,4-thiadiazol-2(3H)-one] are 0.836 nM and 14.6 nM.
The matching figures for `COc1cccc2c1CC[C@H]2Nc1nccc2cc(-c3c4c(nc(CCC5CCCCC5)c3-c3n[nH]c(=O)o3)[C@@H]3CCCN3C4=O)sc12` [Compound 172, 5-((S)-2-(2-cyclohexylethyl)-4-(7-(((R)-4-methoxy-2,3-dihydro-1H-inden-1-yl)amino)thieno[2,3-c]pyridin-2-yl)-5-oxo-7,8,9,9a-tetrahydro-5H-pyrido[2,3-a]pyrrolizin-3-yl)-1,3,4-oxadiazol-2(3H)-one]: 2.06 nM and 51.1 nM.
Turning to `O=C1c2c(nc(CCc3ccc(F)cc3)c(-c3n[nH]c(=O)o3)c2-c2cnc3c(ccn3Cc3ncc(Cl)cc3F)c2)[C@@H]2CCCN12` [Compound 211, (S)-5-(4-(1-((5-chloro-3-fluoropyridin-2-yl)methyl)-1H-pyrrolo[2,3-b]pyridin-5-yl)-2-(4-fluorophenethyl)-5-oxo-7,8,9,9a-tetrahydro-5H-pyrido[2,3-a]pyrrolizin-3-yl)-1,3,4-oxadiazol-2(3H)-one], the figures for the 50% effective concentration (EC50) in experiment [1] and in experiment [2] were 3.85 nM and 434 nM, respectively.
